Target: T1, hSTING (Homo sapiens, UniProt Q86WV6, G230A/H232R/R293Q/R71H)
T1 construct: host or cells: THP1-Dual KO-IFNAR2 cells
Test: STING reporter assay (luciferase) in THP1-Dual KO-IFNAR2 cells stimulated with 2'3'cGAMP
Assay type: cell-based
Conditions: 2'3'cGAMP 15 μM, 24 h, luciferase reporter activity
Description: STING pathway activation by the compounds described herein is measured using THP1-Dual™ cells (KO-IFNAR2).
THP1-Dual™ KO-IFNAR2 Cells (obtained from invivogen) are maintained in RPMI, 10% FCS, 5 ml P/S, 2 mM L-glut, 10 mM Hepes, and 1 mM sodium pyruvate.
Compounds are spotted in empty 384 well tissue culture plates (Greiner 781182) by Echo for a final concentration of 0.0017-100 μM. Cells are plated into the TC plates at 40 μL per well, 2×10E6 cells/mL. For activation with STING ligand, 2′3′cGAMP (MW 718.38, obtained from Invivogen), is prepared in Optimem media.
The following solutions are prepared for each 1×384 plate: • Solution A: 2 mL Optimem with one of the following stimuli: • 60 uL of 10 mM 2′3′cGAMP->150 μM stock • Solution B: 2 mL Optimem with 60 μL Lipofectamine 2000->Incubate 5 min at RT
2 mL of solution A and 2 ml Solution B is mixed and incubated for 20 min at room temperature (RT). 20 uL of transfection solution (A+B) is added on top of the plated cells, with a final 2′3′cGAMP concentration of 15 μM. The plates are then centrifuged immediately at 340 g for 1 minute, after which they are incubated at 37° C., 5% CO2, >98% humidity for 24 h. Luciferase reporter activity is then measured. EC50 values are calculated by using standard methods known in the art.
Luciferase reporter assay: 10 μL of supernatant from the assay is transferred to white 384-plate with flat bottom and squared wells. One pouch of QUANTI-Luc™ Plus us dissolved in 25 mL of water. 100 μL of QLC Stabilizer per 25 mL of QUANTI-Luc™ Plus solution is added. 50 μL of QUANTI-Luc™ Plus/QLC solution per well is then added. Luminescence is measured on a Platereader (e.g., Spectramax I3X (Molecular Devices GF3637001)).
Luciferase reporter activity is then measured. EC50 values are calculated by using standard methods known in the art.

T1 sequence (Q86WV6 whole entry R71H/G230A/H232R/R293Q): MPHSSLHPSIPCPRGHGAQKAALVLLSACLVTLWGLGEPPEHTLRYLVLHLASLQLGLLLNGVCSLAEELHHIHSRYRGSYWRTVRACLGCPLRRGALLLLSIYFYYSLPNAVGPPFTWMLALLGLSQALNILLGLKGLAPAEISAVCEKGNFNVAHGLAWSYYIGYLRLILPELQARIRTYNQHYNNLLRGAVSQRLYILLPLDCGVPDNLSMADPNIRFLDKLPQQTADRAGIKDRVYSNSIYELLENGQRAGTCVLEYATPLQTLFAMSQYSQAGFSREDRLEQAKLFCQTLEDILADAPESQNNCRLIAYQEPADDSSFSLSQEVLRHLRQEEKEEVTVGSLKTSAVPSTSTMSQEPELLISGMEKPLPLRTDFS

Structure (SMILES) | EC50
COCCN1CCN(c2ncc(NC(=O)Nc3c[nH]c4cc(F)c(F)cc34)cc2C)CC1 [Compound 123, 1-(5,6-difluoro-1H-indol-3-yl)-3-(6-(4-(2-methoxyethyl)piperazin-1-yl)-5-methylpyridin-3-yl)urea] | 5000 to 100000 nM
O=C(Nc1cnc(N2CCN(CCC(F)(F)F)CC2)c(Cl)c1)Nc1c[nH]c2ccc(Cl)cc12 [Compound 124, 1-(5-chloro-1H-indol-3-yl)-3-(5-chloro-6-(4-(3,3,3-trifluoropropyl)piperazin-1-yl)pyridin-3-yl)urea] | 40 to 200 nM
N#Cc1cc(NC(=O)Nc2c[nH]c3cc(F)c(F)cc23)cnc1C1CC(F)(F)C1 [Compound 125, 1-(5-cyano-6-(3,3-difluorocyclobutyl)pyridin-3-yl)-3-(5,6-difluoro-1H-indol-3-yl)urea] | 200 to 1000 nM
O=C(Nc1cnc(N2CCN(CC(F)(F)F)CC2)c(Cl)c1)Nc1c[nH]c2ccc(Cl)cc12 [Compound 126, 1-(5-chloro-1H-indol-3-yl)-3-(5-chloro-6-(4-(2,2,2-trifluoroethyl)piperazin-1-yl)pyridin-3-yl)urea] | 40 to 200 nM
O=C(Nc1cnc(N2CCC(F)(F)CC2)c(CCO)c1)Nc1c[nH]c2ccc(Cl)cc12 [Compound 127, 1-(5-chloro-1H-indol-3-yl)-3-(6-(4,4-difluoropiperidin-1-yl)-5-(2-hydroxyethyl)pyridin-3-yl)urea] | 200 to 1000 nM
O=C(Nc1ccc(N2CCC(F)(F)CC2)nc1)Nc1c[nH]c2cc(Cl)c(Cl)cc12 [Compound 128, 1-(5,6-dichloro-1H-indol-3-yl)-3-(6-(4,4-difluoropiperidin-1-yl)pyridin-3-yl)urea] | 1000 to 5000 nM
Cc1cc(NC(=O)Nc2c[nH]c3ccc(Cl)cc23)cnc1N1CC2(C1)CC(F)(F)C2 [Compound 129, 1-(5-chloro-1H-indol-3-yl)-3-(6-(6,6-difluoro-2-azaspiro[3.3]heptan-2-yl)-5-methylpyridin-3-yl)urea] | 40 to 200 nM
O=C(Nc1ccc(C2CCC(F)(F)CC2)nc1)Nc1c[nH]c2ccc(Cl)cc12 [Compound 130, 1-(5-chloro-1H-indol-3-yl)-3-(6-(4,4-difluorocyclohexyl)pyridin-3-yl)urea] | 40 to 200 nM
CCc1cc(NC(=O)Nc2c[nH]c3ccc(Cl)cc23)cnc1N1CCC(F)(F)CC1 [Compound 131, 1-(5-chloro-1H-indol-3-yl)-3-(6-(4,4-difluoropiperidin-1-yl)-5-ethylpyridin-3-yl)urea] | 40 to 200 nM
CCc1cc(NC(=O)Nc2c[nH]c3ccc(F)cc23)cnc1N1CCC(F)(F)CC1 [Compound 132, 1-(6-(4,4-difluoropiperidin-1-yl)-5-ethylpyridin-3-yl)-3-(5-fluoro-1H-indol-3-yl)urea] | 40 to 200 nM
Cc1cc(NC(=O)Nc2c[nH]c3ccc(Cl)cc23)cnc1C1CCN(CC(F)(F)F)CC1 [Compound 133, 1-(5-chloro-1H-indol-3-yl)-3-(5-methyl-6-(1-(2,2,2-trifluoroethyl)piperidin-4-yl)pyridin-3-yl)urea] | 40 to 200 nM

Other lines, results leading:

EC50 | Structure (SMILES)
1000 to 5000 nM | COCCN1CCN(c2ncc(NC(=O)Nc3c[nH]c4cc(F)c(F)cc34)cc2Cl)CC1 [Compound 134, 1-(5-chloro-6-(4-(2-methoxyethyl)piperazin-1-yl)pyridin-3-yl)-3-(5,6-difluoro-1H-indol-3-yl)urea]
200 to 1000 nM | COCCN1CCN(c2ncc(NC(=O)Nc3c[nH]c4ccc(Cl)cc34)cc2Cl)CC1 [Compound 135, 1-(5-chloro-1H-indol-3-yl)-3-(5-chloro-6-(4-(2-methoxyethyl)piperazin-1-yl)pyridin-3-yl)urea]
200 to 1000 nM | O=C(Nc1cnc(C2CCC(F)(F)CC2)c(CO)c1)Nc1c[nH]c2ccc(Cl)cc12 [Compound 136, 1-(5-chloro-1H-indol-3-yl)-3-(6-(4,4-difluorocyclohexyl)-5-(hydroxymethyl)pyridin-3-yl)urea]
40 to 200 nM | O=C(Nc1cnc(N2CC3(C2)CC(F)(F)C3)c(F)c1)Nc1c[nH]c2ccc(Cl)cc12 [Compound 137, 1-(5-chloro-1H-indol-3-yl)-3-(6-(6,6-difluoro-2-azaspiro[3.3]heptan-2-yl)-5-fluoropyridin-3-yl)urea]
40 to 200 nM | O=C(Nc1cnc(N2CC3(C2)CC(F)(F)C3)c(Cl)c1)Nc1c[nH]c2ccc(Cl)cc12 [Compound 138, 1-(5-chloro-1H-indol-3-yl)-3-(5-chloro-6-(6,6-difluoro-2-azaspiro[3.3]heptan-2-yl)pyridin-3-yl)urea]
40 to 200 nM | O=C(Nc1ccc(C2CC(F)(F)C2)c(F)c1)Nc1c[nH]c2ccc(Cl)cc12 [Compound 139, 1-(5-chloro-1H-indol-3-yl)-3-(4-(3,3-difluorocyclobutyl)-3-fluorophenyl)urea]
1000 to 5000 nM | O=C(Nc1cnc(C2CCC(F)(F)CC2)c(Cl)c1)Nc1c[nH]c2cc(Cl)ccc12 [Compound 140, 1-(6-chloro-1H-indol-3-yl)-3-(5-chloro-6-(4,4-difluorocyclohexyl)pyridin-3-yl)urea]
200 to 1000 nM | O=C(Nc1cnc(C2CCC(F)(F)CC2)c(Cl)c1)Nc1c[nH]c2cc(F)ccc12 [Compound 141, 1-(5-chloro-6-(4,4-difluorocyclohexyl)pyridin-3-yl)-3-(6-fluoro-1H-indol-3-yl)urea]
40 to 200 nM | C[C@@H]1CN(c2ncc(NC(=O)Nc3c[nH]c4cc(F)c(F)cc34)cc2Cl)C[C@@H](C)O1 [Compound 142, 1-(5-chloro-6-((2R,6R)-2,6-dimethylmorpholino)pyridin-3-yl)-3-(5,6-difluoro-1H-indol-3-yl)urea]
200 to 1000 nM | O=C(Nc1cnc(N2CCC(F)(F)CC2)c(CCO)c1)Nc1c[nH]c2cc(F)c(F)cc12 [Compound 143, 1-(5,6-difluoro-1H-indol-3-yl)-3-(6-(4,4-difluoropiperidin-1-yl)-5-(2-hydroxyethyl)pyridin-3-yl)urea]
40 to 200 nM | O=C(Nc1cnc(C2CC(F)(F)C2)c(Cl)c1)Nc1c[nH]c2ccc(Cl)cc12 [Compound 144, 1-(5-chloro-1H-indol-3-yl)-3-(5-chloro-6-(3,3-difluorocyclobutyl)pyridin-3-yl)urea]
200 to 1000 nM | O=C(Nc1cnc(N2CCC3(CCCCO3)CC2)c(F)c1)Nc1c[nH]c2cc(F)ccc12 [Compound 145, 1-(6-fluoro-1H-indol-3-yl)-3-(5-fluoro-6-(1-oxa-9-azaspiro[5.5]undecan-9-yl)pyridin-3-yl)urea]
40 to 200 nM | C[C@@H]1CN(c2ncc(NC(=O)Nc3c[nH]c4cc(F)c(F)cc34)cc2Cl)C[C@H](C)O1 [Compound 146, 1-(5-chloro-6-((2R,6S)-2,6-dimethylmorpholino)pyridin-3-yl)-3-(5,6-difluoro-1H-indol-3-yl)urea]
40 to 200 nM | C[C@H]1CN(c2ncc(NC(=O)Nc3c[nH]c4cc(F)c(F)cc34)cc2Cl)C[C@H](C)O1 [Compound 147, 1-(5-chloro-6-((2S,6S)-2,6-dimethylmorpholino)pyridin-3-yl)-3-(5,6-difluoro-1H-indol-3-yl)urea]
40 to 200 nM | CO[C@H]1CCCN(c2ncc(NC(=O)Nc3c[nH]c4cc(F)c(F)cc34)cc2Cl)C1 [Compound 148, (S)-1-(5-chloro-6-(3-methoxypiperidin-1-yl)pyridin-3-yl)-3-(5,6-difluoro-1H-indol-3-yl)urea]
200 to 1000 nM | CO[C@@H]1CCCN(c2ncc(NC(=O)Nc3c[nH]c4cc(F)c(F)cc34)cc2Cl)C1 [Compound 149, (R)-1-(5-chloro-6-(3-methoxypiperidin-1-yl)pyridin-3-yl)-3-(5,6-difluoro-1H-indol-3-yl)urea]
